Assay results published in US7514434B2, “Heterocyclic compounds having an oxadiazole moiety and hydro isomers thereof” (Rigel Pharmaceuticals, Inc., priority 2004, dated 2009).

Columns and labels:
[1] = test system: HCV replicon (5-2 Luc replicon-comprising cells); test: HCV replicon assay (luciferase); assay type: cell-based; conditions: 5-2 Luc replicon cells, 24 hours with compound; read-out: Replicon IC50 (50% reduction in luciferase activity)
Text: In one embodiment, the inhibitory activity of the compounds can be confirmed in a replicon assay that assesses the ability of a test compound to block or inhibit HCV replication in replicon cells. One example of a suitable replicon assay is the liver cell-line Huh 7-based replicon assay described in Lohmann et al., 1999, Science 285:110-113. A specific example of this replicon assay which utilizes luciferase translation is provided in the Examples Section. In one embodiment of this assay, the amount of test compound that yields a 50% reduction in translation as compared to a control cell (IC50) may be determined.
The inhibitory activity of certain exemplary compounds of the invention was confirmed using an HCV replicon assay. The HCV replicon can include such features as the HCV 5′ untranslated region including the HCV IRES, the HCV 3′ untranslated region, selected HCV genes encoding HCV polypeptides, selectable markers, and a reporter gene such as luciferase, GFP, etc. In the assay, actively dividing 5-2 Luc replicon-comprising cells (obtained from Ralf Bartenschlager; see Lohmann et al., 1999, Science 285:110-113) were seeded ata density of between about 5,000 and 7,500 cells/well onto 96 well plates (about 90 μl of cells per well) and incubated at 37° C. and 5% CO2 for 24 hours. Then, the test compound (in a volume of about 10 μl) was added to the wells at various concentrations and the cells were incubated for an additional 24 hours before luciferase assay. Briefly, the Bright-Glo reagent was diluted 1:1 with PBS and 100 μl of diluted reagent was added to each well. After 5 min of incubation at room temperature, luciferin emission was quantified with a luminometer. In this assay, the amount of test compound that yielded a 50% reduction in luciferase activity (IC50) was determined.

[2] = test system: HCV nonstructural protein NS5A or NS3; test: Quantitative Western blot assay in 9-13 replicon cells; assay type: cell-based; conditions: second symbol of column Replicon/Western, 48 hours with compound, read-out: Western IC50 (50% reduction in the amount of NS5A or NS3 protein)
Experimental: Alternatively, the inhibitory activity of the compounds can be confirmed using a quantitative Western immunoblot assay utilizing antibodies specific for HCV non-structural proteins, such as NS3, NS4A NS5A and NS5B. In one embodiment of this assay, replicon cells are treated with varying concentrations of test compound to determine the concentration of test compound that yields a 50% reduction in the amount of a non-structural protein produced as compared to a control sample (IC50). A single non-structural protein may be quantified or multiple non-structural proteins may be quantified. Antibodies suitable for carrying out such immunoblot assays are available commercially (e.g., from BIODESIGN International, Saco, Me.).
Certain exemplary compounds of the invention were also tested for their ability to inhibit HCV replication using a quantitative Western blot analysis with antibodies specific for the HCV nonstructural protein NS5A or NS3. Actively dividing 9-13 replicon cells were seeded into 6-well plates at a density of 1×10^5 cells/well in a volume of 2 ml/well and incubated at 37° C. and 5% CO2 for 24 hours. Various concentrations of test compounds (in a volume of 10 ul) were added to the wells and the cells incubated for another 48 hours. […] The membrane was then soaked in substrate solution (Pierce) and exposed to a film or quantified using an imager. […]

| Compound | IC50 [1] [µM] | IC50 [2] [µM] |
| --- | --- | --- |
| CC(=O)N1CCN(c2cccc(Cl)c2-c2cc(-c3ccc(-c4noc(C(Cl)Cl)n4)c(Cl)c3)on2)CC1 [5-Dichloromethyl-3-[4-[3′-[2′-chloro-6′-(N-acetyl-4-piperazinyl)phenyl]-5′-isoxazolyl]-2-chlorophenyl]-1,2,4-oxadiazole] | > 10 | – |
| CC(=O)N1CCN(c2cccc(Cl)c2-c2cc(-c3ccc(-c4noc(C(Cl)Cl)n4)c(F)c3)on2)CC1 [5-Dichloromethyl-3-[4-[3′-[2′-chloro-6′-(N-acetyl-4-piperazinyl)phenyl]-5′-isoxazolyl]-2-fluorophenyl]-1,2,4-oxadiazole] | ≤ 10 | – |
| COc1cccc(C(F)(F)F)c1-c1cc(-c2cccc(-c3noc(C(Cl)Cl)n3)c2)on1 [(I) R2=CF3, R6=OMe, 5-Dichloromethyl-3-[3-[3′-(2′-methoxy-6′-trifluoromethylphenyl)-5′-isoxazolyl]phenyl]-1,2,4-oxadiazole] | > 10 | – |
| Clc1cccc(Cl)c1-c1cc(-c2cccc(-c3noc(C(Cl)Cl)n3)c2)on1 [(I) R2=Cl, R6=Cl, 5-Dichloromethyl-3-[3-[3′-(2′,6′-dichlorophenyl)-5′-isoxazolyl]phenyl]-1,2,4-oxadiazole] | ≤ 10 | ≤ 10 |
| Fc1cc(-c2cc(-c3c(Cl)cccc3Cl)no2)ccc1-c1noc(C(Cl)Cl)n1 [(I) R2=Cl, R6=Cl, R8=F, 5-Dichloromethyl-3-[4-[3′-(2′,6′-dichlorophenyl)-5′-isoxazolyl]-6-fluorophenyl]-1,2,4-oxadiazole] | ≤ 10 | – |
| Clc1cccc(Cl)c1-c1cc(-c2ccccc2-c2noc(C(Cl)Cl)n2)on1 [(II) R2=Cl, R6=Cl, 5-Dichloromethyl-3-[2-[3′-(2′,6′-dichlorophenyl)-5′-isoxazolyl]phenyl]-1,2,4-oxadiazole] | ≤ 10 | – |
| Fc1cccc(C(F)(F)F)c1-c1cc(-c2ccc(-c3noc(C(Cl)Cl)n3)cc2)on1 [(III) R2=CF3, R6=F, 5-Dichloromethyl-3-[4-[3′-(2′-fluoro-6′-trifluoromethylphenyl)-5′-isoxazolyl]phenyl]-1,2,4-oxadiazole] | ≤ 10 | – |
| COc1cccc(C(F)(F)F)c1-c1cc(-c2ccc(-c3noc(C(Cl)Cl)n3)cc2)on1 [(III) R2=CF3, R6=OMe, 5-Dichloromethyl-3-[4-[3′-(2′-methoxy-6′-trifluoromethylphenyl)-5′-isoxazolyl]phenyl]-1,2,4-oxadiazole] | ≤ 10 | – |
| Clc1cccc(Cl)c1-c1cc(-c2ccc(-c3noc(C(Cl)Cl)n3)cc2)on1 [(III) R2=Cl, R6=Cl, 5-Dichloromethyl-3-[4-[3′-(2′,6′-dichlorophenyl)-5′-isoxazolyl]phenyl]-1,2,4-oxadiazole] | ≤ 10 | – |
| Clc1cc(-c2cc(-c3c(Cl)cccc3Cl)no2)ccc1-c1noc(C(Cl)Cl)n1 [(III) R2=Cl, R6=Cl, R8=Cl, 5-Dichloromethyl-3-[4-[3′-(2′,6′-dichlorophenyl)-5′-isoxazolyl]-2-chlorophenyl]-1,2,4-oxadiazole] | > 10 | – |
| Cc1cc(-c2noc(C(Cl)Cl)n2)ccc1-c1cc(-c2c(Cl)cccc2Cl)no1 [(III) R2=Cl, R6=Cl, R10=Me, 5-Dichloromethyl-3-[4-[3′-(2′,6′-dichlorophenyl)-5′-isoxazolyl]-3-methylphenyl]-1,2,4-oxadiazole] | ≤ 10 | – |
| Fc1cccc(Cl)c1-c1cc(-c2ccc(-c3noc(C(Cl)Cl)n3)cc2)on1 [(III) R2=Cl, R6=F, 5-Dichloromethyl-3-[4-[3′-(2′-chloro-6′-fluorophenyl)-5′-isoxazolyl]phenyl]-1,2,4-oxadiazole] | ≤ 10 | – |
| Clc1cccc(Cl)c1-c1cc(-c2ccnc(-c3noc(C(Cl)Cl)n3)c2)on1 [(Ia) R2=Cl, R6=Cl, 5-Dichloromethyl-3-[4-[3′-(2′,6′-dichlorophenyl)-5′-isoxazolyl]-4-pyridyl]-1,2,4-oxadiazole] | > 10 | – |
